Measured values reported in patent US20260092071A1, “COMPOUNDS AND COMPOSITIONS AS SMARCA2/4 DEGRADERS AND USES THEREOF” (REGENTS OF THE UNIVERSITY OF MICHIGAN, priority 2022, published 2026).

Columns and labels:
SMARCA2 = SMARCA2 (Homo sapiens, UniProt P51531); assay: HiBit assay in engineered HT1080 CRISPR knock-in cell, 6 hrs (B series), SMARCA2; format: cell-based; details: 6 hrs incubation; for DC50: read-out: SMARC A2 HT1080 HiBit DC50; for Dmax: HT-1080, HT1080 CRISPR knock-in cells, read-out: SMARC A2 HT1080 HiBit Dmax (%)
Outline: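 Remaining SMARCA2 protein measured as HiBiT luminescence after cell lysis with LgBiT plus lytic substrate. Engineered HT1080 knock-in cells (2000/well) were first treated 6 h at 37 °C with compound at a final 0.1% DMSO.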

SMARCA4 = SMARCA4 (Homo sapiens, UniProt P51532); assay: HiBit assay in engineered HT1080 CRISPR knock-in cell, 6 hrs (B series), SMARCA4; format: cell-based; details: 6 hrs incubation; for DC50: read-out: SMARC A4 HT1080 HiBit DC50; for Dmax: HT-1080, HT1080 CRISPR knock-in cells, read-out: SMARC A4 HT1080 HiBit Dmax(%)
Outline: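 HT1080 CRISPR knock-in cells carrying the HiBiT tag were seeded onto compounds (final DMSO 0.1%) and incubated 6 hrs at 37° C, 5% CO2. Remaining tagged protein was detected by lytic HiBiT luminescence after adding LgBiT protein and substrate, with LgBiT-free wells serving as negative control.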

Sequence of SMARCA4 (P51532 whole entry): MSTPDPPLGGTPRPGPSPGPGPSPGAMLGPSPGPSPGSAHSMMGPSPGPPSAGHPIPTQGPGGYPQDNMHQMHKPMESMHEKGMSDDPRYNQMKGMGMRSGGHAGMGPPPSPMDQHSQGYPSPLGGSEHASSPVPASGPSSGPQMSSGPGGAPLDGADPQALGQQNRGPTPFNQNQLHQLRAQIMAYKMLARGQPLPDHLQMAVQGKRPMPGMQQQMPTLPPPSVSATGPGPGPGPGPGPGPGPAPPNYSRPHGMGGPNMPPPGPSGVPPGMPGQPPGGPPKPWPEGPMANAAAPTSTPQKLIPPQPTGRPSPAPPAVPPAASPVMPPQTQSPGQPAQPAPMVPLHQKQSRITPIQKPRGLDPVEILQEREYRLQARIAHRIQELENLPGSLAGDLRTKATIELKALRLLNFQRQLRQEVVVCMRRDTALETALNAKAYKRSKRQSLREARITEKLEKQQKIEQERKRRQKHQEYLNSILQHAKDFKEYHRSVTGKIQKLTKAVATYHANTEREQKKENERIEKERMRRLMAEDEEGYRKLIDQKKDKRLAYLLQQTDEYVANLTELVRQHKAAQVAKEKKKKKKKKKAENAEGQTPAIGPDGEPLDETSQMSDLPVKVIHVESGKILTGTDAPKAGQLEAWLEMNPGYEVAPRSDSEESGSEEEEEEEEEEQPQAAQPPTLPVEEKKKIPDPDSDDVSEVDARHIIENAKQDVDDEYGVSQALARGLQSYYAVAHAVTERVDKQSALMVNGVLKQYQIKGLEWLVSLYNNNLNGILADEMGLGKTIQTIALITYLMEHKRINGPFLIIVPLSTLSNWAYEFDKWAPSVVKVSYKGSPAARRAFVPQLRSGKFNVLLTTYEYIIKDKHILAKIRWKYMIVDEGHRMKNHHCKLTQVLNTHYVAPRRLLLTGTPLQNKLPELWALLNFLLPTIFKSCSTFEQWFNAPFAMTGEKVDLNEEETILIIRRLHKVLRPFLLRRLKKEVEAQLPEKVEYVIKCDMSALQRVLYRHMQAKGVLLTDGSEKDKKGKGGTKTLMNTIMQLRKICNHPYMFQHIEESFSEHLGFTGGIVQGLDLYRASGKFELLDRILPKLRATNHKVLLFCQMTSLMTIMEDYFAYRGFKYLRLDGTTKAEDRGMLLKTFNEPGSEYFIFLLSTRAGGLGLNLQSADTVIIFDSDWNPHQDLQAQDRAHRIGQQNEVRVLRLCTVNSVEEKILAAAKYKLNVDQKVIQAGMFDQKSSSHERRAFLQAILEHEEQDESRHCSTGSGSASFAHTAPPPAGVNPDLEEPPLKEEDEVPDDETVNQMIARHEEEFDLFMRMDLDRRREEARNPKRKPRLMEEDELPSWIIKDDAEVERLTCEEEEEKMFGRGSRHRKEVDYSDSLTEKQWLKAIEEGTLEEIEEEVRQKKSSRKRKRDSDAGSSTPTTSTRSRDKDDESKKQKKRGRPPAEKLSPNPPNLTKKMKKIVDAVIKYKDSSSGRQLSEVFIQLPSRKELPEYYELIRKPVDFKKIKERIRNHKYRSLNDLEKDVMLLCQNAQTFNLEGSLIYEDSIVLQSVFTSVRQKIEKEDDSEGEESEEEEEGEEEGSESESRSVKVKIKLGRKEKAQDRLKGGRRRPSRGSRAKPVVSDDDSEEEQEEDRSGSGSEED
Sequence of SMARCA2 (P51531 whole entry): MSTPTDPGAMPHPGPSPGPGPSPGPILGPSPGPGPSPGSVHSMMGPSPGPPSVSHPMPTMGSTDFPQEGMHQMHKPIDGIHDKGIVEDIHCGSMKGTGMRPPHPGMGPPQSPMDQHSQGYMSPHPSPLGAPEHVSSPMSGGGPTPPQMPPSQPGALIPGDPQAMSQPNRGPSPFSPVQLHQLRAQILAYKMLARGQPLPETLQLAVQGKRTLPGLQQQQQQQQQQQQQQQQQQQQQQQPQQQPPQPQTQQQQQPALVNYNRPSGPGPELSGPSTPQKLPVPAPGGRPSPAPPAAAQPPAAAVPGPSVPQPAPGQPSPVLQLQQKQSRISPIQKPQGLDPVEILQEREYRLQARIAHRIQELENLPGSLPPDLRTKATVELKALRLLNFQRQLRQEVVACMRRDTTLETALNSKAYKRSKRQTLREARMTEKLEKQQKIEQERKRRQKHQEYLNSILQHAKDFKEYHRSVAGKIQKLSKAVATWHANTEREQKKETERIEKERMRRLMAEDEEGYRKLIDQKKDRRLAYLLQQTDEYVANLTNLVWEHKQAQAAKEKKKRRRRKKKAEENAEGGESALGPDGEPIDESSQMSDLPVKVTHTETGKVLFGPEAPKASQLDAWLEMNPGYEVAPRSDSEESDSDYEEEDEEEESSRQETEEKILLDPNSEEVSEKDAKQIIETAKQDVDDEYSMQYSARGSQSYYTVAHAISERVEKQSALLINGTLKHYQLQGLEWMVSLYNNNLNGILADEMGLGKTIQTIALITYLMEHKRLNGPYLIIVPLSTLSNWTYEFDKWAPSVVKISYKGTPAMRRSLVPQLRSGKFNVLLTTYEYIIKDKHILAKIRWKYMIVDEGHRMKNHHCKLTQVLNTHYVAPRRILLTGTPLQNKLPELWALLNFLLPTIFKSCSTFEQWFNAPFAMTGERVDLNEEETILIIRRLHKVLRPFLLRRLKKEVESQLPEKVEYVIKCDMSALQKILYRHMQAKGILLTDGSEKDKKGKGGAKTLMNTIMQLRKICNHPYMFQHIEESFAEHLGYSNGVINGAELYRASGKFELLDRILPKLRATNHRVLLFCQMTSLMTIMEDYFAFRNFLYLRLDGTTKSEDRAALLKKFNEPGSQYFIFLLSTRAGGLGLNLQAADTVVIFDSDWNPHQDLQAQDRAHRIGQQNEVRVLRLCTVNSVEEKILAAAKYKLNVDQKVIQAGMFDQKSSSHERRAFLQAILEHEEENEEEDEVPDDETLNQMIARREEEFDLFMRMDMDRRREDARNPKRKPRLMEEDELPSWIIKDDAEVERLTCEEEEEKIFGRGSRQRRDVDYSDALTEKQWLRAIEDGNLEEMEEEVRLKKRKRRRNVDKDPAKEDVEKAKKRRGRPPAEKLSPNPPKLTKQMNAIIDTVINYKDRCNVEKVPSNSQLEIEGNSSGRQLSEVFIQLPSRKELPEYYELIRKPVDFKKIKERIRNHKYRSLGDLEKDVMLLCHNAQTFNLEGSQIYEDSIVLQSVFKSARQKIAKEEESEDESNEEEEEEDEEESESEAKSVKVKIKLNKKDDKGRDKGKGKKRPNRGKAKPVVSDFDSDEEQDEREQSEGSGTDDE

Structure (SMILES) | DC50 (SMARCA2; HT1080 CRISPR knock-in cells) | Dmax (SMARCA2) | DC50 (SMARCA4; HT1080 CRISPR knock-in cells) | Dmax (SMARCA4) | SMARC A2 HT1080 HiBit Dmax (%) (SMARCA2; HT1080 CRISPR knock-in cells) | SMARC A4 HT1080 HiBit Dmax(%) (SMARCA4; HT1080 CRISPR knock-in cells)
Cc1ncsc1-c1ccc([C@H](C)NC(=O)[C@@H]2C[C@@H](O)CN2C(=O)[C@@H](NC(=O)CCCCN2CCC(c3ccc4c(c3)-n3c(nc(=O)c5c(Cl)cccc53)C4(C)C)CC2)C(C)(C)C)cc1 [Compound B50, (2S,4R)-1-((S)-2-(5-(4-(4-chloro-7,7-dimethyl-5-oxo-5,7-dihydroindolo[1,2-a]quinazolin-10-yl)piperidin-1-yl)pentanamido)-3,3-dimethylbutanoyl)-4-hydroxy-N-((S)-1-(4-(4-methylthiazol-5-yl)phenyl)ethyl)pyrrolidine-2-carboxamide] | 100 to 500 nM | 70 to 90% | > 1000 nM | < 50% |  | 
Cc1ncsc1-c1ccc([C@H](C)NC(=O)[C@@H]2C[C@@H](O)CN2C(=O)[C@@H](n2cc([C@H]3CC[C@H](CN4CCC(c5ccc6c(c5)-n5c(nc(=O)c7c(Cl)cccc75)C6(C)C)CC4)CC3)nn2)C(C)(C)C)cc1 [Compound B51, (2S,4R)-1-((S)-2-(4-((1r,4S)-4-((4-(4-chloro-7,7-dimethyl-5-oxo-5,7-dihydroindolo[1,2-a]quinazolin-10-yl)piperidin-1-yl)methyl)cyclohexyl)-1H-1,2,3-triazol-1-yl)-3,3-dimethylbutanoyl)-4-hydroxy-N-((S)-1-(4-(4-methylthiazol-5-yl)phenyl)ethyl)pyrrolidine-2-carboxamide] | < 100 nM | > 90% | < 100 nM | 70 to 90% |  | 
Cc1ncsc1-c1ccc([C@H](C)NC(=O)[C@@H]2C[C@@H](O)CN2C(=O)[C@@H](c2cc(OCCn3cc(-c4ccc5c(c4)C(C)(C)c4nc(=O)c6c(Cl)cccc6n4-5)cn3)no2)C(C)C)cc1 [Compound B52, (2S,4R)-1-((R)-2-(3-(2-(4-(4-chloro-7,7-dimethyl-5-oxo-5,7-dihydroindolo[1,2-a]quinazolin-9-yl)-1H-pyrazol-1-yl)ethoxy)isoxazol-5-yl)-3-methylbutanoyl)-4-hydroxy-N-((S)-1-(4-(4-methylthiazol-5-yl)phenyl)ethyl)pyrrolidine-2-carboxamide] | < 100 nM | 70 to 90% | > 1000 nM | < 50% |  | 

Further lines, results first:

DC50 (SMARCA2; HT1080 CRISPR knock-in cells) | Dmax (SMARCA2) | DC50 (SMARCA4; HT1080 CRISPR knock-in cells) | Dmax (SMARCA4) | SMARC A2 HT1080 HiBit Dmax (%) (SMARCA2; HT1080 CRISPR knock-in cells) | SMARC A4 HT1080 HiBit Dmax(%) (SMARCA4; HT1080 CRISPR knock-in cells) | Structure (SMILES)
100 to 500 nM | 70 to 90% | 100 to 500 nM | 50 to 69% |  |  | Cc1ncsc1-c1ccc([C@H](CC(=O)NCC2CCC(N3CCC(c4ccc5c(c4)-n4c(nc(=O)c6c(Cl)cccc64)C5(C)C)CC3)CC2)NC(=O)[C@@H]2C[C@@H](O)CN2C(=O)[C@@H](NC(=O)C2(F)CC2)C(C)(C)C)cc1 (stereo partly drawn) [Compound B53, (2S,4R)-N-((S)-3-(((4-(4-(4-chloro-7,7-dimethyl-5-oxo-5,7-dihydroindolo[1,2-a]quinazolin-10-yl)piperidin-1-yl)cyclohexyl)methyl)amino)-1-(4-(4-methylthiazol-5-yl)phenyl)-3-oxopropyl)-1-((S)-2-(1-fluorocyclopropane-1-carboxamido)-3,3-dimethylbutanoyl)-4-hydroxypyrrolidine-2-carboxamide]
100 to 500 nM |  | 100 to 500 nM |  | D (D (<50% degradation)) | D (D (<50% degradation)) | Cc1ncsc1-c1ccc([C@H](CC(=O)NCC2CCC(N3CCC(c4ccc5c(c4)-n4c(nc(=O)c6c(Cl)cccc64)C5(C)C)CC3)CC2)NC(=O)[C@@H]2C[C@@H](O)CN2C(=O)[C@@H](NC(=O)C2(F)CC2)C(C)(C)C)cc1 (stereo partly drawn) [Compound B54, (2S,4R)-N-((S)-3-(((4-(4-(4-chloro-7,7-dimethyl-5-oxo-5,7-dihydroindolo[1,2-a]quinazolin-10-yl)piperidin-1-yl)cyclohexyl)methyl)amino)-1-(4-(4-methylthiazol-5-yl)phenyl)-3-oxopropyl)-1-((S)-2-(1-fluorocyclopropane-1-carboxamido)-3,3-dimethylbutanoyl)-4-hydroxypyrrolidine-2-carboxamide]
